# Assay results as given in US20250360145A1, “CSF-1R INHIBITORS AND USES THEREOF” (Myrobalan Therapeutics, Inc., priority 2022, published 2025).
# pEC50: −log10 of the molar value.
# Assays:
# [1] = Plasma protein binding study; type: in vitro ADME; conditions: mouse plasma, equilibrium dialysis 4 hours; read-out: PPB-mouse (Bound) (%) (converted)
# Experimental: On the day of experiment, the plasma was thawed under running cold tap water and centrifuged at 3220×g for 5 min to remove any clots. The pH value was checked and recorded. Only plasma within range of pH 7.0 to pH 8.0 was used. Pretreat the dialysis membrane according to the manufacturer's instructions: the dialysis membrane strips were soaked in ultra pure water at room temperature for approximately 1 hr. After that, each membrane strip that contains 2 membranes was separated and soaked in ethanol:water (20:80 v:v) for approximately 20 min, after which it was ready for use or was stored in the solution at 2-8° C. for up to 1 month. Prior to the experiment, the membrane was rinsed and soaked for 20 min in ultra pure water for use. Working solutions (400 μM) of test compound and control compound were prepared. Aliquots of working solutions (3 μL) were spiked into blank matrix (597 μL) to achieve final concentrations and mixed thoroughly. Aliquots of 50 μL loading matrix containing test compound or control compound in triplicate was transferred to Sample Collection Plate, respectively. The samples were matched with opposite blank buffer to obtain a final volume of 100 μL with a volume ratio of matrix:Dialysis Buffer (1:1, v:v) in each well immediately. The stop solution was added to these T0 samples of test compound and control compound. The plate was sealed and shaked at 800 rpm for 10 min. Then these T0 samples were stored at 2-8° C. pending further process along with other post-dialysis samples. The dialysis instrument was assembled following manufacture's instructions. An aliquot of 100 μL of the loading matrix containing test compound or control compound was transferred to the donor side of each dialysis well in triplicate and 100 μL of the Dialysis Buffer was loaded to the receiver side of the well. Then the plate was rotated at approximately 100 rpm in a humidified incubator with 5% CO2 at 37±1° C. for 4 hours. At the end of the dialysis, aliquots of 50 μL samples from the buffer side and matrix side of the dialysis device were taken into new 96-well plates (Sample Collection Plates). An equal volume of opposite blank matrix (buffer or matrix) in each sample was added to reach a final volume of 100 μL with volume ratio of matrix:Dialysis Buffer at 1:1 (v:v) in each well. All samples were further processed by protein precipitation for LC/MS/MS analysis.
# [2] = system: CSF1R phosphorylation in BV2 cells; experiment: p-CSF1R Western blot assay in BV2 cells; type: cell-based, murine; conditions: Mus musculus, BV-2, 30 minutes pretreatment, CSF1 100 ng/mL 5 minutes
# [3] = system: ERK1/2 phosphorylation in BV2 cells; experiment: p-ERK1/2 Western blot assay in BV2 cells; type: cell-based, murine; conditions: Mus musculus, BV-2, 30 minutes pretreatment, CSF1 100 ng/mL 5 minutes
# [4] = system: CSF1R phosphorylation in THP-1 cells; experiment: p-CSF1R ELISA assay in THP1 cells; type: cell-based; conditions: Homo sapiens, THP1 cells pre-treated one hour, stimulated with hCSF1, read-out: THP1 pCSFIR ELISA EC50
# [5] = system: BV2 cells; experiment: BV2 cell proliferation (Cell Titer Glo); type: cell-based, murine; conditions: Mus musculus, BV-2, CSF1 100 ng/mL, 72 h
# [6] = system: CSF1R phosphorylation in THP-1 cells; experiment: Inhibition of CSF1R phosphorylation in THP-1 monocytes (ELISA, Table D); type: cell-based, human; conditions: FIG. 6
# Experimental: The THP-1 human monocyte-like cell line has intact CSF1R signaling that allows for the probing of the activation status of this pathway when stimulated by recombinant CSF. THP-1 cells were expanded in-vitro and pretreated with CSF1R inhibitors for an hour prior to stimulation with recombinant human M-CSF for 5 minutes. The cells were lysed, and the lysate was probed for activated CSF1R (pCSF1R) using ELISA. Using GraphPad Prism, a four-parameter logistic regression was applied to determine the potency of the CSF1R inhibitors.
# [7] = system: microglia (Iba1+ cells) in cortex and hippocampus; experiment: In vivo microglial depletion; set-up: species or system C57BL/6 mice; conditions: for Mean Cortical Ibal + Cell Density ± SEM (mm^−2) / Mean Hippocampal Ibal + Cell Density ± SEM (mm^−2): oral gavage BID 7 days; for Mean Cortical Ibal + Cell Density ± SEM (mm^−2): cortex; for Mean Hippocampal Ibal + Cell Density ± SEM (mm^−2): hippocampus
# Experimental: To measure the in vivo pharmacodynamic effect, we quantified microglial depletion following repeated dosing of our compound in naive animals. Female C57BL/6 mice were given Example 134 (0, 50, 100, or 200 mg/kg/day, respectively) by oral gavage BID for 7 days. Following the final dose, mice were perfused with PBS followed by 4% paraformaldehyde (PFA). Brains were post-fixed overnight in 4% PFA and then transferred to 30% sucrose solution. Sagittal sections were sliced and stained for the microglial marker Iba1 and counterstained for DAPI. Brain sections were then imaged under 20× wide-field imaging, and the microglia density was quantified in the cortex and hippocampus.
smiles,measurement,setting,value
"COc1ccc(COc2ncc(Cc3ccnc4cc(OC)cnc34)cc2OC)nc1 [Example 16, 3-methoxy-8-((5-methoxy-6-((5-methoxypyridin-2-yl)methoxy)pyridin-3-yl)methyl)-1,5-naphthyridine]","fraction unbound at 4 h, 2 µM",[1],0.0063
same,pEC50,[2],7.33
same,pEC50,[3],7.67
same,pEC50,[4],7.97
same,pEC50,[5],7.34
same,CSF1R phosphorylation in CSF1R-stimulated THP-1 monocytes,[6],dose-dependent inhibition of CSF1R phosphorylation
"COc1cnc2c(Cc3cnc(OCc4cc5n(n4)CCOC5)c(OC)c3)ccnc2c1 [Example 73, 2-(((3-methoxy-5-((7-methoxy-1,5-naphthyridin-4-yl)methyl)pyridin-2-yl)oxy)methyl)-6,7-dihydro-4H-pyrazolo[5,1-c][1,4]oxazine]","fraction unbound at 4 h, 2 µM",[1],0.01
COc1ccc(COc2ncc(Cc3ccnc4cc(N5CCN(C)CC5)cnc34)cc2OC)nc1 [Example 116],"fraction unbound at 4 h, 2 µM",[1],0.042
"COc1ccc(COc2ncc(Cc3ccnc4cc(-c5ccn(C)n5)cnc34)cc2OC)nc1 [Example 134, 8-((5-methoxy-6-((5-methoxypyridin-2-yl)methoxy)pyridin-3-yl)methyl)-3-(1-methyl-1H-pyrazol-3-yl)-1,5-naphthyridine]","fraction unbound at 4 h, 2 µM",[1],0.008
same,decrease of microglia density in the cortex compared to vehicle control,[7]; 50 mg/kg,> 22%
same,Mean Cortical Ibal + Cell Density ± SEM (mm^−2),[7]; 50 mg/kg,63.6 ± 8.1 mm^−2
same,Mean Hippocampal Ibal + Cell Density ± SEM (mm^−2),[7]; 50 mg/kg,73.3 ± 7.8 mm^−2
same,decrease of microglia density in the cortex compared to vehicle control,[7]; 100 mg/kg,> 91%
same,decrease of microglia density in the hippocampus relative to vehicle control,[7]; 100 mg/kg,> 83%
same,Mean Cortical Ibal + Cell Density ± SEM (mm^−2),[7]; 100 mg/kg,6.9 ± 1.2 mm^−2
same,Mean Hippocampal Ibal + Cell Density ± SEM (mm^−2),[7]; 100 mg/kg,13.6 ± 2.2 mm^−2
same,decrease of microglia density in the cortex compared to vehicle control,[7]; 200 mg/kg,> 98%
same,decrease of microglia density in the hippocampus relative to vehicle control,[7]; 200 mg/kg,> 93%
same,Mean Cortical Ibal + Cell Density ± SEM (mm^−2),[7]; 200 mg/kg,1.5 ± 0.3 mm^−2
same,Mean Hippocampal Ibal + Cell Density ± SEM (mm^−2),[7]; 200 mg/kg,5.6 ± 0.9 mm^−2
"COc1cnc2c(Cc3cnc(OCc4cc5n(n4)C[C@H](OC)C5)c(OC)c3)ccnc2c1 [Example 136, (R)-3-methoxy-8-((5-methoxy-6-((5-methoxy-5,6-dihydro-4H-pyrrolo[1,2-b]pyrazol-2-yl)methoxy)pyridin-3-yl)methyl)-1,5-naphthyridine]","fraction unbound at 4 h, 2 µM",[1],0.005
